The NIST ThermoML archive (doi:10.1021/je400055v)

Assay: xn = mol fraction of the nth substance listed
Settings: Liquid, Vibrating tube method

CCCCCCCCCCC [undecane] + CCCCCCC
Settings | mass density [kg/m3]
342.97 K, 1001 kPa, x2 = 0.9511 | 645.7
342.97 K, 2000 kPa, x2 = 0.9511 | 647
342.97 K, 3000 kPa, x2 = 0.9511 | 648.4
342.97 K, 4000 kPa, x2 = 0.9511 | 649.7
342.97 K, 5000 kPa, x2 = 0.9511 | 650.9
342.97 K, 6000 kPa, x2 = 0.9511 | 652.2
342.97 K, 7000 kPa, x2 = 0.9511 | 653.4
342.97 K, 8000 kPa, x2 = 0.9511 | 654.6
342.97 K, 9000 kPa, x2 = 0.9511 | 655.8
342.97 K, 10000 kPa, x2 = 0.9511 | 657
342.97 K, 11000 kPa, x2 = 0.9511 | 658.1
342.97 K, 12000 kPa, x2 = 0.9511 | 659.2
342.97 K, 13000 kPa, x2 = 0.9511 | 660.3
342.97 K, 14001 kPa, x2 = 0.9511 | 661.4
342.97 K, 15001 kPa, x2 = 0.9511 | 662.5
342.97 K, 16000 kPa, x2 = 0.9511 | 663.5
342.97 K, 17001 kPa, x2 = 0.9511 | 664.5
342.97 K, 18001 kPa, x2 = 0.9511 | 665.6
342.97 K, 19000 kPa, x2 = 0.9511 | 666.6
342.97 K, 20000 kPa, x2 = 0.9511 | 667.5
342.97 K, 21001 kPa, x2 = 0.9511 | 668.5
342.97 K, 22000 kPa, x2 = 0.9511 | 669.4
342.97 K, 23001 kPa, x2 = 0.9511 | 670.4
342.97 K, 24000 kPa, x2 = 0.9511 | 671.3
342.97 K, 25000 kPa, x2 = 0.9511 | 672.2
343.01 K, 2001 kPa, x2 = 0.5063 | 680.1
343.01 K, 3000 kPa, x2 = 0.5063 | 681.2
343.01 K, 4000 kPa, x2 = 0.5063 | 682.3
343.01 K, 5000 kPa, x2 = 0.5063 | 683.4
343.01 K, 6000 kPa, x2 = 0.5063 | 684.5
343.01 K, 7000 kPa, x2 = 0.5063 | 685.5
343.01 K, 8001 kPa, x2 = 0.5063 | 686.5
343.01 K, 9000 kPa, x2 = 0.5063 | 687.6
343.01 K, 10000 kPa, x2 = 0.5063 | 688.6
343.01 K, 11000 kPa, x2 = 0.5063 | 689.5
343.01 K, 12000 kPa, x2 = 0.5063 | 690.5
343.01 K, 13000 kPa, x2 = 0.5063 | 691.5
343.01 K, 14000 kPa, x2 = 0.5063 | 692.4
343.01 K, 15000 kPa, x2 = 0.5063 | 693.4
343.01 K, 16000 kPa, x2 = 0.5063 | 694.3
343.01 K, 17001 kPa, x2 = 0.5063 | 695.2
343.01 K, 18000 kPa, x2 = 0.5063 | 696.1
343.01 K, 19000 kPa, x2 = 0.5063 | 697
343.01 K, 20000 kPa, x2 = 0.5063 | 697.8
343.01 K, 21001 kPa, x2 = 0.5063 | 698.7
343.01 K, 22050 kPa, x2 = 0.5063 | 699.5
343.01 K, 23000 kPa, x2 = 0.5063 | 700.4
343.01 K, 24000 kPa, x2 = 0.5063 | 701.2
343.01 K, 25000 kPa, x2 = 0.5063 | 702
343.02 K, 1001 kPa, x2 = 0.05 | 701.5
343.02 K, 2001 kPa, x2 = 0.05 | 702.5
343.02 K, 3000 kPa, x2 = 0.05 | 703.6
343.02 K, 4000 kPa, x2 = 0.05 | 704.6
343.02 K, 5000 kPa, x2 = 0.05 | 705.5
343.02 K, 6000 kPa, x2 = 0.05 | 706.5
343.02 K, 7000 kPa, x2 = 0.05 | 707.5
343.02 K, 8001 kPa, x2 = 0.05 | 708.4
343.02 K, 9000 kPa, x2 = 0.05 | 709.3
343.02 K, 10000 kPa, x2 = 0.05 | 710.2
343.02 K, 11000 kPa, x2 = 0.05 | 711.1
343.02 K, 12000 kPa, x2 = 0.05 | 712
343.02 K, 13000 kPa, x2 = 0.05 | 712.9
343.02 K, 14000 kPa, x2 = 0.05 | 713.8
343.02 K, 15000 kPa, x2 = 0.05 | 714.6
343.02 K, 16000 kPa, x2 = 0.05 | 715.5
343.02 K, 17000 kPa, x2 = 0.05 | 716.3
343.02 K, 18000 kPa, x2 = 0.05 | 717.1
343.02 K, 19000 kPa, x2 = 0.05 | 717.9
343.02 K, 20000 kPa, x2 = 0.05 | 718.7
343.02 K, 21000 kPa, x2 = 0.05 | 719.5
343.02 K, 22001 kPa, x2 = 0.05 | 720.3
343.02 K, 23000 kPa, x2 = 0.05 | 721.1
343.02 K, 24000 kPa, x2 = 0.05 | 721.8
343.02 K, 25000 kPa, x2 = 0.05 | 722.6
343.03 K, 1000 kPa, x2 = 0.7482 | 662.4
343.03 K, 2000 kPa, x2 = 0.7482 | 663.6
343.03 K, 3000 kPa, x2 = 0.7482 | 664.9
343.03 K, 4000 kPa, x2 = 0.7482 | 666.1
343.03 K, 5000 kPa, x2 = 0.7482 | 667.2
343.03 K, 6000 kPa, x2 = 0.7482 | 668.4
343.03 K, 7000 kPa, x2 = 0.7482 | 669.5
343.03 K, 8000 kPa, x2 = 0.7482 | 670.6
343.03 K, 9000 kPa, x2 = 0.7482 | 671.7
343.03 K, 10000 kPa, x2 = 0.7482 | 672.8
343.03 K, 11000 kPa, x2 = 0.7482 | 673.9
343.03 K, 12000 kPa, x2 = 0.7482 | 674.9
343.03 K, 13000 kPa, x2 = 0.7482 | 675.9
343.03 K, 14000 kPa, x2 = 0.7482 | 677
343.03 K, 15000 kPa, x2 = 0.7482 | 678
343.03 K, 16000 kPa, x2 = 0.7482 | 678.9
343.03 K, 17000 kPa, x2 = 0.7482 | 679.9
343.03 K, 18000 kPa, x2 = 0.7482 | 680.8
343.03 K, 19000 kPa, x2 = 0.7482 | 681.8
